Laboratory results reported in patent publication US20230053540A1, “TREATMENT OF LIVER INJURY” (Massachusetts Institute of Technology, priority 2019, published 2023).

System: hepatocytes
Assay: Seq-Well scRNA-Seq of hepatocytes after APAP overdose (signature scores, DEG vs untreated)
Format: in vivo, mouse
[1] = cluster A6, DEG between treatment (APAP and PH)

With `CC(=O)Nc1ccc(O)cc1` [APAP, acetaminophen] the “Ugdh avg_logFC” value (cluster A6 (APAP 6 hr)) was 0.5563, the “Ugdh pct.1” value (cluster A6 (APAP 6 hr)) was 0.721 and the “Vcam1 avg_logFC” value (cluster A6 (APAP 6 hr)) was 0.4376. The “Vcam1 pct.1” value (cluster A6 (APAP 6 hr)) was 0.134, the “Vsig4 avg_logFC” value (cluster A6 (APAP 6 hr)) was 0.4542 and the “Vsig4 pct.1” value (cluster A6 (APAP 6 hr)) was 0.117. For the same compound, the “Wfdc17 avg_logFC” value (cluster A6 (APAP 6 hr)) was 0.4173, the “Wfdc17 pct.1” value (cluster A6 (APAP 6 hr)) was 0.177 and the “Xbp1 avg_logFC” value (cluster A6 (APAP 6 hr)) was 0.4407. The “Xbp1 pct.1” value (cluster A6 (APAP 6 hr)) was 0.692, the “Ywhag avg_logFC” value (cluster A6 (APAP 6 hr)) was 0.4649 and the “Ywhag pct.1” value (cluster A6 (APAP 6 hr)) was 0.518. The “mmu-mir-6240 avg_logFC” value (cluster A6 (APAP 6 hr)) was 1.083, the “mmu-mir-6240 pct.1” value (cluster A6 (APAP 6 hr)) was 0.413 and the “avg_logFC 1700017B05Rik” value [1] was 0.3277. For the same compound, the “avg_logFC 2010003K11Rik” value [1] was 0.5729, the “avg_logFC AA474408” value [1] was 0.2664 and the “avg_logFC Aass” value [1] was 0.4071. For the same compound, the “avg_logFC Abca1” value [1] was 0.6539, the “avg_logFC Abhd2” value [1] was 0.4149 and the “avg_logFC Actb” value [1] was 1.052. For the same compound, the “avg_logFC Aff4” value [1] was 0.5363, the “avg_logFC Agpat9” value [1] was 0.3049 and the “avg_logFC Alb” value [1] was 0.3749. For the same compound, the “avg_logFC Apoa4” value [1] was 1.166, the “avg_logFC Apob” value [1] was 0.4802 and the “avg_logFC App” value [1] was 0.3381. The “avg_logFC Arhgef12” value [1] was 0.4856, the “avg_logFC Asl” value [1] was 0.4135 and the “avg_logFC B4galt5” value [1] was 0.4239. For the same compound, the “avg_logFC Bach1” value [1] was 0.7686, the “avg_logFC Bcl2l1” value [1] was 0.7415 and the “avg_logFC Bcl3” value [1] was 0.2741. For the same compound, the “avg_logFC Btg1” value [1] was 0.3984, the “avg_logFC Btg2” value [1] was 0.7669 and the “avg_logFC C3” value [1] was 0.2785. The “avg_logFC C230081A13Rik” value [1] was 0.4184, the “avg_logFC Cars” value [1] was 0.3067 and the “avg_logFC Ccl6” value [1] was 0.7868. The “avg_logFC Cdkn1a” value [1] was 1.252, the “avg_logFC Cers6” value [1] was 0.5071 and the “avg_logFC Chic2” value [1] was 0.3964. For the same compound, the “avg_logFC Chka” value [1] was 1.403, the “avg_logFC Cidec” value [1] was 0.3067 and the “avg_logFC Cldn14” value [1] was 0.3695. For the same compound, the “avg_logFC Clec4f” value [1] was 1.124, the “avg_logFC Cltc” value [1] was 0.6852 and the “avg_logFC Creb3l2” value [1] was 0.3971. For the same compound, the “avg_logFC Ctsl” value [1] was 0.5128, the “avg_logFC Cxadr” value [1] was 0.6568 and the “avg_logFC Cyp4a14” value [1] was 0.3334. For the same compound, the “avg_logFC D10Wsu102e” value [1] was 0.5698, the “avg_logFC Ddx3x” value [1] was 0.5612 and the “avg_logFC Ddx5” value [1] was 0.5397. The “avg_logFC Ddx21” value [1] was 0.6559, the “avg_logFC Dgkd” value [1] was 0.3584 and the “avg_logFC Dkc1” value [1] was 0.3054. The “avg_logFC Dot1l” value [1] was 0.3853, the “avg_logFC Dusp6” value [1] was 0.5087 and the “avg_logFC Dusp16” value [1] was 0.4273. For the same compound, the “avg_logFC Eaf1” value [1] was 0.5072, the “avg_logFC Eef2” value [1] was 0.4059 and the “avg_logFC Efhd2” value [1] was 0.5766. For the same compound, the “avg_logFC Egr1” value [1] was 0.537, the “avg_logFC Eif1a” value [1] was 0.7228 and the “avg_logFC Eif4g2” value [1] was 0.4126. For the same compound, the “avg_logFC Eif5” value [1] was 0.4809, the “avg_logFC Epas1” value [1] was 0.7138 and the “avg_logFC Epb4.1” value [1] was 0.4678. The “avg_logFC Errfi1” value [1] was 0.3421, the “avg_logFC Etf1” value [1] was 0.4526 and the “avg_logFC Ets2” value [1] was 0.6806. For the same compound, the “avg_logFC Fam107b” value [1] was 0.4162, the “avg_logFC Fam134b” value [1] was 0.8152 and the “avg_logFC Fga” value [1] was 0.501. For the same compound, the “avg_logFC Fgb” value [1] was 0.4774, the “avg_logFC Fgg” value [1] was 0.4751 and the “avg_logFC Fkbp5” value [1] was 0.4567. For the same compound, the “avg_logFC Fndc3b” value [1] was 0.3496, the “avg_logFC Gclc” value [1] was 1.802 and the “avg_logFC Gcnt2” value [1] was 0.5038. The “avg_logFC Gjb2” value [1] was 0.5038, the “avg_logFC Gm15564” value [1] was 0.7861 and the “avg_logFC Gm20594” value [1] was 0.4405. The “avg_logFC Gm24245” value [1] was 0.4984, the “avg_logFC Gm26917” value [1] was 0.4239 and the “avg_logFC Gm26924” value [1] was 0.7269. The “avg_logFC Gn12” value [1] was 0.358, the “avg_logFC Gnl3” value [1] was 0.4902 and the “avg_logFC Gpt2” value [1] was 0.4695. For the same compound, the “avg_logFC Gsta1” value [1] was 0.4089, the “avg_logFC Gtpbp4” value [1] was 0.4623 and the “avg_logFC H3f3b” value [1] was 0.7184. The “avg_logFC Hbb-bs” value [1] was 2.586, the “avg_logFC Heatr1” value [1] was 0.3815 and the “avg_logFC Hif1a” value [1] was 0.4876. For the same compound, the “avg_logFC Hilpda” value [1] was 0.7803, the “avg_logFC Hmox1” value [1] was 1.34 and the “avg_logFC Hnf4a” value [1] was 0.6962. The “avg_logFC Hnrnpdl” value [1] was 0.3993, the “avg_logFC Hsd17b13” value [1] was 0.4804 and the “avg_logFC Hspb8” value [1] was 0.6089. For the same compound, the “avg_logFC Ifrd1” value [1] was 0.4765, the “avg_logFC Igfbp1” value [1] was 1.09 and the “avg_logFC Iigp1” value [1] was 0.6431. For the same compound, the “avg_logFC Il1r1” value [1] was 1.189, the “avg_logFC Insig2” value [1] was 0.6081 and the “avg_logFC Itih2” value [1] was 0.3927. For the same compound, the “avg_logFC Itih3” value [1] was 0.4042, the “avg_logFC Jak1” value [1] was 0.5437 and the “avg_logFC Jmjd1c” value [1] was 0.5963. The “avg_logFC Kif5b” value [1] was 0.4522, the “avg_logFC Klf6” value [1] was 0.7067 and the “avg_logFC Krt8” value [1] was 1.273. For the same compound, the “avg_logFC Krt18” value [1] was 1.227, the “avg_logFC Lars2” value [1] was 0.8143 and the “avg_logFC Lcn2” value [1] was 0.3876. For the same compound, the “avg_logFC Lmo4” value [1] was 0.2962, the “avg_logFC Lpin2” value [1] was 0.5165 and the “avg_logFC Lrg1” value [1] was 0.3324. For the same compound, the “avg_logFC Lrrc58” value [1] was 0.9396, the “avg_logFC Lrrfip1” value [1] was 0.4108 and the “avg_logFC Lyst” value [1] was 0.3717. The “avg_logFC Mak16” value [1] was 0.2897, the “avg_logFC Malat1” value [1] was 0.9854 and the “avg_logFC Map2k3” value [1] was 0.415. The “avg_logFC Map3k5” value [1] was 0.3131, the “avg_logFC Mat1a” value [1] was 0.3889 and the “avg_logFC Mat2a” value [1] was 0.4758. For the same compound, the “avg_logFC Mcl1” value [1] was 0.5249, the “avg_logFC Mdn1” value [1] was 0.3079 and the “avg_logFC Mfsd2a” value [1] was 0.461. For the same compound, the “avg_logFC Mmp14” value [1] was 0.2571, the “avg_logFC Mpeg1” value [1] was 0.4668 and the “avg_logFC Mrap” value [1] was 0.8615. The “avg_logFC Mt1” value [1] was 2.32, the “avg_logFC Mt2” value [1] was 2.038 and the “avg_logFC Mybbp1a” value [1] was 0.4018. For the same compound, the “avg_logFC Myh9” value [1] was 1.025, the “avg_logFC Myl12a” value [1] was 0.4029 and the “avg_logFC Myo1e” value [1] was 0.5786. For the same compound, the “avg_logFC Nars” value [1] was 0.3687, the “avg_logFC Ncl” value [1] was 0.3882 and the “avg_logFC Neat1” value [1] was 0.6554. For the same compound, the “avg_logFC Nedd4l” value [1] was 0.2635, the “avg_logFC Nolc1” value [1] was 0.4445 and the “avg_logFC Nop58” value [1] was 0.6343. For the same compound, the “avg_logFC Pfkfb2” value [1] was 0.2694, the “avg_logFC Phc2” value [1] was 0.299 and the “avg_logFC Picalm” value [1] was 0.6766. For the same compound, the “avg_logFC Plec” value [1] was 0.4188, the “avg_logFC Plin2” value [1] was 1.454 and the “avg_logFC Plk3” value [1] was 0.4158. The “avg_logFC Plscr1” value [1] was 0.4497, the “avg_logFC Ppan” value [1] was 0.2767 and the “avg_logFC Ppl” value [1] was 0.8618. For the same compound, the “avg_logFC Prrc2c” value [1] was 0.3906, the “avg_logFC Ptp4a1” value [1] was 0.2517 and the “avg_logFC Ptpn1” value [1] was 0.3865. For the same compound, the “avg_logFC Ptpn2” value [1] was 0.271, the “avg_logFC Ptpn12” value [1] was 0.3093 and the “avg_logFC Pxk” value [1] was 0.2652. The “avg_logFC Rad54l2” value [1] was 0.3642, the “avg_logFC Ranbp2” value [1] was 0.5074 and the “avg_logFC Rcan1” value [1] was 0.701. For the same compound, the “avg_logFC Rell1” value [1] was 0.5793, the “avg_logFC Retsat” value [1] was 0.2918 and the “avg_logFC Rnd3” value [1] was 0.3267. For the same compound, the “avg_logFC Rock2” value [1] was 0.5552, the “avg_logFC Rora” value [1] was 0.541 and the “avg_logFC S100a8” value [1] was 1.127. For the same compound, the “avg_logFC S100a9” value [1] was 1.342, the “avg_logFC Sat1” value [1] was 0.6887 and the “avg_logFC Sdad1” value [1] was 0.2969. The “avg_logFC Sdc4” value [1] was 0.5673, the “avg_logFC Sds” value [1] was 0.3515 and the “avg_logFC Serpina3m” value [1] was 0.7932. The “avg_logFC Serpina3n” value [1] was 0.6641, the “avg_logFC Slc10a2” value [1] was 0.2704 and the “avg_logFC Slc16a6” value [1] was 0.914. For the same compound, the “avg_logFC Slc20a1” value [1] was 0.326, the “avg_logFC Slc39a14” value [1] was 0.9161 and the “avg_logFC Smg1” value [1] was 0.3045. The “avg_logFC Son” value [1] was 0.4555, the “avg_logFC Spred1” value [1] was 0.352 and the “avg_logFC Sqstm1” value [1] was 0.6992. For the same compound, the “avg_logFC Srgn” value [1] was 0.9289, the “avg_logFC Srxn1” value [1] was 1.864 and the “avg_logFC St3gal1” value [1] was 0.517. For the same compound, the “avg_logFC St3gal5” value [1] was 0.4358, the “avg_logFC Stat3” value [1] was 0.652 and the “avg_logFC Stk40” value [1] was 0.493. For the same compound, the “avg_logFC Stom” value [1] was 0.3, the “avg_logFC Tacc2” value [1] was 0.3128 and the “avg_logFC Tars” value [1] was 0.4718. For the same compound, the “avg_logFC Tatdn2” value [1] was 0.3248, the “avg_logFC Tbc1d15” value [1] was 0.4322 and the “avg_logFC Tcerg1” value [1] was 0.3468. For the same compound, the “avg_logFC Tiparp” value [1] was 0.5248, the “avg_logFC Tjp2” value [1] was 0.3961 and the “avg_logFC Tm4sf4” value [1] was 0.4006. The “avg_logFC Tmem87b” value [1] was 0.4054.
